test system: FLU A (PR/8/34); assay: Flu A Neuraminidase Antiviral Assay; type: cell-based; conditions: not given

| Compound | EC50 [nM] |
| --- | --- |
| CC1(c2ccccc2)CCCC2N(CC3CC4(CCC4)C3)C(=O)c3c(O)c(=O)ccn3N21 (single isomer, unassigned) [Compound 42B, 7-hydroxy-1-methyl-1-phenyl-5-(spiro[3.3]heptan-2-ylmethyl)-1,2,3,4,4a,5-hexahydrodipyrido[1,2-b:2′,1′-f][1,2,4]triazine-6,8-dione] | 49.5 |
| CN1C(=O)c2c(O)c(=O)ccn2N2C(c3ccccc3)C(c3cc(F)c(F)cc3F)CCC12 (single isomer, unassigned) [Compound 86A, 7-hydroxy-5-methyl-1-phenyl-2-(2,4,5-trifluorophenyl)-1,2,3,4,4a,5-hexahydrodipyrido[1,2-b:2′,1′-f][1,2,4]triazine-6,8-dione] | 4.3 |
| CN1C(=O)c2c(O)c(=O)ccn2N2C(c3ccccc3)C(Cc3ccccc3)CCC12 (single isomer, unassigned) [Compound 117A, 2-benzyl-7-hydroxy-5-methyl-1-phenyl-1,2,3,4,4a,5-hexahydrodipyrido[1,2-b:2′,1′-f][1,2,4]triazine-6,8-dione] | 3530 |
| CN1C(=O)c2c(O)c(=O)ccn2N2C1CCC2(C)c1ccccc1Cl (single isomer, unassigned) [Compound 63A, 1-(2-chlorophenyl)-6-hydroxy-1,4-dimethyl-2,3,3a,4-tetrahydro-1H-pyrido[2,1-f]pyrrolo[1,2-b][1,2,4]triazine-5,7-dione] | > 8100 |
| CN1C(=O)c2c(O)c(=O)ccn2N2C1CCC(O)C2(C)c1ccccc1 (stereo not drawn) [Compound 137B, 2,7-dihydroxy-1,5-dimethyl-1-phenyl-1,2,3,4,4a,5-hexahydrodipyrido[1,2-b:2′,1′-f][1,2,4]triazine-6,8-dione] | > 8100 |
| CN1C(=O)c2c(O)c(=O)ccn2N2C(c3cc(F)ccc3C(F)(F)F)CCCC12 (single isomer, unassigned) [Compound 13A, 1-(5-fluoro-2-(trifluoromethyl)phenyl)-7-hydroxy-5-methyl-1,2,3,4,4a,5-hexahydro-dipyrido[1,2-b:2′,1′-f][1,2,4]triazine-6,8-dione] | > 8100 |
| CCC1(c2ccccc2)CCC2N(C)C(=O)c3c(O)c(=O)ccn3N21 (single isomer, unassigned) [Compound 62C, 1-ethyl-6-hydroxy-4-methyl-1-phenyl-2,3,3a,4-tetrahydro-1H-pyrido[2,1-f]pyrrolo[1,2-b][1,2,4]triazine-5,7-dione] | 7490 |
| CCN1C(=O)c2c(O)c(=O)ccn2N2C1CCC1(CCC(F)(F)CC1)C2c1ccccc1 (single isomer, unassigned) [Compound 76B] | 2 |
| CCN1C(=O)c2c(O)c(=O)cc(COC)n2N2C(c3ccccc3)C(CC(F)(F)F)CCC12 (stereo not drawn) [Compound 131B, 5-ethyl-7-hydroxy-10-(methoxymethyl)-1-phenyl-2-(2,2,2-trifluoroethyl)-1,2,3,4,4a,5-hexahydrodipyrido[1,2-b:2′,1′-f][1,2,4]triazine-6,8-dione] | > 810 |
| Cc1cccc(C2(C)CCCC3N(CC(F)F)C(=O)c4c(O)c(=O)ccn4N32)n1 (single isomer, unassigned) [Compound 54B, 5-(2,2-difluoroethyl)-7-hydroxy-1-methyl-1-(6-methylpyridin-2-yl)-1,2,3,4,4a,5-hexahydrodipyrido[1,2-b:2′,1′-f][1,2,4]triazine-6,8-dione] | 24.9 |
| CN1C(=O)c2c(O)c(=O)ccn2N2C1CCCC2(C)c1ncc(F)cc1F (single isomer, unassigned) [Compound 46B, 1-(3,5-difluoropyridin-2-yl)-7-hydroxy-1,5-dimethyl-1,2,3,4,4a,5-hexahydrodipyrido[1,2-b:2′,1′-f][1,2,4]triazine-6,8-dione] | > 8100 |
| CN1C(=O)c2c(O)c(=O)ccn2N2C(c3ccccc3)C(CCC(F)(F)F)CCC12C (single isomer, unassigned) [Compound 78A, 7-hydroxy-4a,5-dimethyl-1-phenyl-2-(3,3,3-trifluoropropyl)-1,2,3,4,4a,5-hexahydrodipyrido[1,2-b:2′,1′-f][1,2,4]triazine-6,8-dione] | > 810 |
| Cc1ccccc1C1C(CCC(F)(F)F)CCC2N(C)C(=O)c3c(O)c(=O)ccn3N12 (single isomer, unassigned) [Compound 95B, 7-hydroxy-5-methyl-1-(o-tolyl)-2-(3,3,3-trifluoropropyl)-1,2,3,4,4a,5-hexahydrodipyrido[1,2-b:2′,1′-f][1,2,4]triazine-6,8-dione] | 7.5 |
| Cc1cccc(C2(C)CCCC3N(CC(F)F)C(=O)c4c(O)c(=O)ccn4N32)n1 (single isomer, unassigned) [Compound 54A, 5-(2,2-difluoroethyl)-7-hydroxy-1-methyl-1-(6-methylpyridin-2-yl)-1,2,3,4,4a,5-hexahydrodipyrido[1,2-b:2′,1′-f][1,2,4]triazine-6,8-dione] | > 810 |
| CN1C(=O)c2c(O)c(=O)ccn2N2C(c3ccccc3)C(CC(F)(F)F)CCC12C (single isomer, unassigned) [Compound 111B, 7-hydroxy-4a,5-dimethyl-1-phenyl-2-(2,2,2-trifluoroethyl)-1,2,3,4,4a,5-hexahydrodipyrido[1,2-b:2′,1′-f][1,2,4]triazine-6,8-dione] | 3.3 |
| CN1C(=O)c2c(O)c(=O)ccn2N2C1CCC1(CC(F)(F)C1)C2c1ccccc1 (single isomer, unassigned) [Compound 74C, 3,3-difluoro-7′-hydroxy-5′-methyl-1′-phenyl-3′,4′,4a′,5′-tetrahydro-1′H-spiro[cyclobutane-1,2′-dipyrido[1,2-b:2′,1′-f][1,2,4]triazine]-6′,8′-dione] | 32.5 |
| CC1(c2ccccc2)CCCC2N(CC3CC(F)(F)C3)C(=O)c3c(O)c(=O)ccn3N21 (single isomer, unassigned) [Compound 45A, 5-((3,3-difluorocyclobutyl)methyl)-7-hydroxy-1-methyl-1-phenyl-1,2,3,4,4a,5-hexahydrodipyrido[1,2-b:2′,1′-f][1,2,4]triazine-6,8-dione] | > 8100 |
| CN1C(=O)c2c(O)c(=O)ccn2N2C(c3ccccc3)C(c3cc(F)c(F)cc3F)CCC12 (single isomer, unassigned) [Compound 86B, 7-hydroxy-5-methyl-1-phenyl-2-(2,4,5-trifluorophenyl)-1,2,3,4,4a,5-hexahydrodipyrido[1,2-b:2′,1′-f][1,2,4]triazine-6,8-dione] | > 810 |
| CCN1C(=O)c2c(O)c(=O)ccn2N2C(c3ccccc3C)C(CCC(F)F)CCC12 (single isomer, unassigned) [Compound 102B, 2-(3,3-difluoropropyl)-5-ethyl-7-hydroxy-1-(o-tolyl)-1,2,3,4,4a,5-hexahydrodipyrido[1,2-b:2′,1′-f][1,2,4]triazine-6,8-dione] | 36.5 |
| CN1C(=O)c2c(O)c(=O)ccn2N2C(c3ccccc3)CCCCC12 (single isomer, unassigned) [Compound 57A, 4-hydroxy-6-methyl-11-phenyl-6a,7,8,9,10,11-hexahydro-3H-pyrido[1′,2′:1,6][1,2,4]triazino[2,3-a]azepine-3,5(6H)-dione] | 95.5 |
| CN1C(=O)c2c(O)c(=O)ccn2N2C1CCCC2(C)c1c(F)cccc1F (single isomer, unassigned) [Compound 23B, 1-(2,6-difluorophenyl)-7-hydroxy-1,5-dimethyl-1,2,3,4,4a,5-hexahydrodipyrido[1,2-b:2′,1′-f][1,2,4]triazine-6,8-dione] | 2.6 |
| CCCC1CCC2N(C)C(=O)c3c(O)c(=O)ccn3N2C1c1ccccc1C (single isomer, unassigned) [Compound 92B, 7-hydroxy-5-methyl-2-propyl-1-(o-tolyl)-1,2,3,4,4a,5-hexahydrodipyrido[1,2-b:2′,1′-f][1,2,4]triazine-6,8-dione] | 3.3 |
| CN1C(=O)c2c(O)c(=O)ccn2N2C(c3c(F)cccc3F)CCCC12 (single isomer, unassigned) [Compound 7B, 1-(2,6-difluorophenyl)-7-hydroxy-5-methyl-1,2,3,4,4a,5-hexahydrodipyrido[1,2-b:2′,1′-f][1,2,4]triazine-6,8-dione] | 256 |
| Cc1ccccc1C1C(CC2CC2(F)F)CCC2N(C)C(=O)c3c(O)c(=O)ccn3N12 (single isomer, unassigned) [Compound 88D] | 2.9 |
| CC1(c2ccccc2)CCCC2N(CCC(F)(F)F)C(=O)c3c(O)c(=O)ccn3N21 (single isomer, unassigned) [Compound 38A, 7-hydroxy-1-methyl-1-phenyl-5-(3,3,3-trifluoropropyl)-1,2,3,4,4a,5-hexahydrodipyrido[1,2-b:2′,1′-f][1,2,4]triazine-6,8-dione] | > 8100 |
| CN1C(=O)c2c(O)c(=O)ccn2N2C(c3ccccc3)CCCC12C (single isomer, unassigned) [Compound 59A, 7-hydroxy-4a,5-dimethyl-1-phenyl-1,2,3,4,4a,5-hexahydrodipyrido[1,2-b:2′,1′-f][1,2,4]triazine-6,8-dione] | 7280 |

same assay, conditions: MDCK, 48 h

| Compound | EC50 [nM] |
| --- | --- |
| CN1C(=O)c2c(O)c(=O)ccn2N2C1CCC1OCc3ccccc3C12C (stereo not drawn) [Compound 148, 7-hydroxy-5,12a-dimethyl-2a,3,4,4a,5,12a-hexahydro-1H-isochromeno[3′,4′:5,6]pyrido[1,2-b]pyrido[2,1-f][1,2,4]triazine-6,8-dione] | 38 |
| CN1C(=O)c2c(O)c(=O)ccn2N2C(c3ccccc3)[C@H]3CCCC[C@H]3C12 (stereo partly drawn) [Compound 16, (6bR,10aS)-4-hydroxy-6-methyl-11-phenyl-6a,6b,7,8,9,10,10a,11-octahydro-3H-pyrido[1′,2′:1,6][1,2,4]triazino[3,2-a]isoindole-3,5(6H)-dione] | 4100 |
| COCCN1C(=O)c2c(O)c(=O)ccn2N2C(c3ccc(F)cc3)CCCC12 (single isomer, unassigned) [Compound 4A, 1-(4-fluorophenyl)-7-hydroxy-5-(2-methoxyethyl)-1,2,3,4,4a,5-hexahydrodipyrido[1,2-b:2′,1′-f][1,2,4]triazine-6,8-dione] | > 8100 |
| CN1C(=O)c2c(O)c(=O)ccn2C2C1CCCC2(O)c1ccccc1 (single isomer, unassigned) [Compound 165A, 1,7-dihydroxy-5-methyl-1-phenyl-1,3,4,4a,5,11a-hexahydro-2H-pyrido[1,2-a]quinoxaline-6,8-dione] | > 8100 |
